Measurements from ChEMBL document CHEMBL1201862, “PubChem BioAssay data set” (2004).
The source made the active and inactive calls.

Key:
[1] = blockers of bursicon-stimulated LGR2 cAMP reporter – cell-based, HEK293, CRE-luciferase reporter, cherry pick, set 2, dose response (AID 743343); format: functional;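 note: transfected cells were stimulated with diluted bursicon conditioned medium after compound addition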
[2] = tested on: HEK293; assay: EBV LMP1 TES2 canonical NF-kB signalling blockers – cell-based, HEK293, luciferase, cherry-pick, dose response (AID 588343); format: functional; settings: Homo sapiens
[3] = blockade of melanocortin 4 receptor signaling – cell-based, plate reader, cherry pick, counter-screen for LGR2 antagonist project, dose response (AID 743444); format: functional;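 note: transfected HEK 293 cells stimulated with alpha-MSH peptide; potency of inhibitors of the alpha-MSH evoked signal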
[4] = biological target: T1, Streptokinase A (Streptococcus pyogenes serotype M1, UniProt P10520); assay: viability-normalized secreted streptokinase activity reduction – plasminogen activation absorbance, OD405, dose response (AID 1914); format: functional, Streptococcus pyogenes M1 GAS;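 note: secreted streptokinase activity via plasminogen activation per viability signal from cell pellet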
T1 sequence (P10520 whole entry): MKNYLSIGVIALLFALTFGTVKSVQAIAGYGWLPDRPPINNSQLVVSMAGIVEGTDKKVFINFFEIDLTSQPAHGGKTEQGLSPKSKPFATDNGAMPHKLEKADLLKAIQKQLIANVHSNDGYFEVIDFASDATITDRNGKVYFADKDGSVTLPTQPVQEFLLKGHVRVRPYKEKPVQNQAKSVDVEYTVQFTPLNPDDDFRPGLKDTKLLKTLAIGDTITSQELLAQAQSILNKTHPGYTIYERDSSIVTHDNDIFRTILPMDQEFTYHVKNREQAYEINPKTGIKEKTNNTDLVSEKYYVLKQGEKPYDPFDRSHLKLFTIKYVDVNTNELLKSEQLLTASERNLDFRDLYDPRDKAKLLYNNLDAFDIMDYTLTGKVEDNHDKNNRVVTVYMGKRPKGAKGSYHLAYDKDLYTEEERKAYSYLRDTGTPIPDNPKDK

[5] = microbe, parasite or virus in culture; format: functional; settings: Mycobacterium tuberculosis
[6] = tested on: Streptococcus sp. 'group A'; assay: Streptococcus pyogenes SK(-)GAS viability under kanamycin – luminescence, BacTiterGlo, confirmation, counter-screen for streptokinase expression inhibitor project, dose response (AID 1900); format: functional, organism-based
[7] = biological target: Cytochrome P450 2D6 (Homo sapiens, UniProt P10635);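 note: CYP2D6 member of a cytochrome P450 panel assay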
[8] = cells; format: functional
[9] = tested on: Streptococcus; assay: GAS UMAA2166 growth inhibition – luminescence, BacTiterGlo, counter-screen for streptokinase expression inhibitor project, dose response (AID 1915); format: functional, organism-based;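 note: potency for reduction of bacterial viability or growth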
[10] = Vero E6 cell cytotoxicity, dose response, cytotoxicity control for non-replicating M. tuberculosis project, secondary assay (AID 492998); format: functional, VeroE6; settings: Vero C1008
[11] = HepG2 cell cytotoxicity, dose response, cytotoxicity control for non-replicating M. tuberculosis project (AID 489018); format: functional; settings: Mycobacterium tuberculosis
[12] = biological target: T2, Cytochrome P450 3A4 (Homo sapiens, UniProt P08684)
[13] = THP-1 cell cytotoxicity, dose response, cytotoxicity control for non-replicating M. tuberculosis project (AID 489025); format: functional
[14] = biological target: Voltage-dependent T-type calcium channel subunit alpha-1H (Homo sapiens, UniProt O95180); format: functional;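 note: channel activity triggered by adding a high calcium stimulation buffer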
[15] = cells; format: functional, cell-based
[16] = cells; format: functional, cell-based; remark: listed apart in the source
[17] = biological target: T2, Cytochrome P450 3A4; settings: Potency
[18] = toxicity toward HepG2 liver cells – cell-based, plate reader, cherry-pick, antagonist series, cytotoxicity control, dose response (AID 743416); format: functional
[19] = A549 cell cytotoxicity, dose response, cytotoxicity control, plate reader, cherry-pick, antagonist series (AID 743412); format: functional, cell-based
[20] = non-specific 3'UTR reporter inhibition in Clone20-Shn3RL – cell-based, Renilla luciferase, cherry-picked, counter-screen for Shn3 inhibitor project, dose response (AID 624133); format: functional
[21] = loss of viability in HepG2 cells – cell-based, CellTiter-Glo, cherry-picked, cytotoxicity control for Shn3 inhibitor project, dose response (AID 624134); format: functional
[22] = Luminescence Cell-Based Dose Retest to Confirm Inhibitors of Cancer Stem Cells. [Related pubchem assays (depositor defined):AID2717, AID2721]; format: functional; settings: Homo sapiens
[23] = viability of HCT116 lacking mutant beta-catenin – cell-based, human colon tumor, dose response (AID 1045); format: functional;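 note: HCT116 colon tumor cells with beta catenin knocked out; cells exposed to compound for 60 hours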
[24] = biological target: T3, Ubiquitin-conjugating enzyme E2 N (Homo sapiens, UniProt P61088); format: functional;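 note: Dose-response confirmation in a TR-FRET assay detecting UBC13-driven polyubiquitin chain formation, inhibition measured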
T3 sequence (P61088 whole entry): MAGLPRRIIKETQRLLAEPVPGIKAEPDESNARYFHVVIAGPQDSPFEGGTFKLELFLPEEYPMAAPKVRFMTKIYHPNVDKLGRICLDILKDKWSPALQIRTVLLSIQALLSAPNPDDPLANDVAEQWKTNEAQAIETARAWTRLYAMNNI

[25] = viability of PTEN-deleted HCT116 cells – cell-based, HCT116 PTEN knockout, dose response (AID 1047); format: functional;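 note: HCT116 colon tumor cells with PTEN knocked out; cells exposed to compound for 60 hours before readout; potency for loss of cell viability measured by luminescence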
[26] = reduction of Shn3 3'UTR-driven luciferase in osteoblasts – cell-based, Clone20 osteoblasts, firefly luciferase, cherry-picked, dose response (AID 624132); format: functional;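 note: firefly luciferase luminescence from reporter carrying the Shn3 3'UTR in osteoblasts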
[27] = tested on: H9c2; assay: cells; format: functional, cell-based; settings: Rattus norvegicus, H9c2, Myocardium;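 note: confirmatory concentration-response retest of ultra-high-throughput screening hits for modulation of myocardial damage; cell death induced by hydrogen peroxide oxidative stress; compound pretreatment for 60 min then peroxide exposure for 2 h; potency is for protecting the cells against peroxide damage rather than for killing them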
[28] = biological target: T4, Cytochrome P450 1A2 (Homo sapiens, UniProt P05177);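 note: PubChem cytochrome P450 panel assay, CYP1A2 panel member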
T4 sequence (P05177 whole entry): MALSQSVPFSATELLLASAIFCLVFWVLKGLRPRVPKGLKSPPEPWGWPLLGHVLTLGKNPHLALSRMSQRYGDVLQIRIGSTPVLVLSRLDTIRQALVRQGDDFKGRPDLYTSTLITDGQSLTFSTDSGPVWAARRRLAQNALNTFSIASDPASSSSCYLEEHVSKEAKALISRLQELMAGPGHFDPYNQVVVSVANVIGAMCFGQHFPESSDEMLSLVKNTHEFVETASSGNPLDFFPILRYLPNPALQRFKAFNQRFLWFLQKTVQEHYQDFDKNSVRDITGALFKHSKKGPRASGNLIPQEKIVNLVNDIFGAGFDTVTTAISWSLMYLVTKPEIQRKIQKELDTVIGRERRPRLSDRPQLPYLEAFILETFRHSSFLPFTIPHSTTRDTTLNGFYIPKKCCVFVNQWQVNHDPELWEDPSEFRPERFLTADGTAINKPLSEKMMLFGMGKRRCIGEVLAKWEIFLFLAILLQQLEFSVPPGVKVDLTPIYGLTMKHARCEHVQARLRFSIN

[29] = OVCAR8 cell viability loss – plate reader, dry powder samples, PAX8 project, dose response (AID 743197); format: functional, cell-based; settings: OVCAR-8
[30] = biological target: Paired box protein Pax-8 (Homo sapiens, UniProt Q06710); assay: PAX8 transcriptional activity inhibition in RMG-I – RMG-I cells, luciferase, cherry-pick, dose response (AID 687027); format: functional, cell-based;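 note: luciferase reporter driven by Pax8 target thyroperoxidase promoter measured by SteadyGlo luminescence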
[31] = OVCAR-3 cell viability loss – plate reader, dry powder samples, PAX8 inhibitor project, dose response (AID 743044); format: functional, cell-based
[32] = P. falciparum Dd2 growth inhibitors, dose response, SYBR Green, cherry-picked samples (AID 1159567); format: functional, cell-based

T2 sequence (P08684 whole entry): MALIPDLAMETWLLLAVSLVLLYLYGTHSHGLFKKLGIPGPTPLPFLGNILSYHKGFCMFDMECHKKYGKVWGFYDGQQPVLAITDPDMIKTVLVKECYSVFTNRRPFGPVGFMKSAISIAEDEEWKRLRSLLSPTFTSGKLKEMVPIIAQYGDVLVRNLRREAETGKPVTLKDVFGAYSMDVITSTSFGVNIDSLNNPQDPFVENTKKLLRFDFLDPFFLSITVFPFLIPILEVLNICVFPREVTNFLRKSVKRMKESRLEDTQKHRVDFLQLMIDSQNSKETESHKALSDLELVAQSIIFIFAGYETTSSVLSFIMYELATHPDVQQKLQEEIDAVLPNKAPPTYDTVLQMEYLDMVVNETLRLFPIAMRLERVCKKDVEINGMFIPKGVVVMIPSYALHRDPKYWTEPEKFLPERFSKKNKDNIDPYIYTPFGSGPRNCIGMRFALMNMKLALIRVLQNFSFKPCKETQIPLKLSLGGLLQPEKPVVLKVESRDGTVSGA
Voltage-dependent T-type calcium channel subunit alpha-1H, sequence (O95180 whole entry): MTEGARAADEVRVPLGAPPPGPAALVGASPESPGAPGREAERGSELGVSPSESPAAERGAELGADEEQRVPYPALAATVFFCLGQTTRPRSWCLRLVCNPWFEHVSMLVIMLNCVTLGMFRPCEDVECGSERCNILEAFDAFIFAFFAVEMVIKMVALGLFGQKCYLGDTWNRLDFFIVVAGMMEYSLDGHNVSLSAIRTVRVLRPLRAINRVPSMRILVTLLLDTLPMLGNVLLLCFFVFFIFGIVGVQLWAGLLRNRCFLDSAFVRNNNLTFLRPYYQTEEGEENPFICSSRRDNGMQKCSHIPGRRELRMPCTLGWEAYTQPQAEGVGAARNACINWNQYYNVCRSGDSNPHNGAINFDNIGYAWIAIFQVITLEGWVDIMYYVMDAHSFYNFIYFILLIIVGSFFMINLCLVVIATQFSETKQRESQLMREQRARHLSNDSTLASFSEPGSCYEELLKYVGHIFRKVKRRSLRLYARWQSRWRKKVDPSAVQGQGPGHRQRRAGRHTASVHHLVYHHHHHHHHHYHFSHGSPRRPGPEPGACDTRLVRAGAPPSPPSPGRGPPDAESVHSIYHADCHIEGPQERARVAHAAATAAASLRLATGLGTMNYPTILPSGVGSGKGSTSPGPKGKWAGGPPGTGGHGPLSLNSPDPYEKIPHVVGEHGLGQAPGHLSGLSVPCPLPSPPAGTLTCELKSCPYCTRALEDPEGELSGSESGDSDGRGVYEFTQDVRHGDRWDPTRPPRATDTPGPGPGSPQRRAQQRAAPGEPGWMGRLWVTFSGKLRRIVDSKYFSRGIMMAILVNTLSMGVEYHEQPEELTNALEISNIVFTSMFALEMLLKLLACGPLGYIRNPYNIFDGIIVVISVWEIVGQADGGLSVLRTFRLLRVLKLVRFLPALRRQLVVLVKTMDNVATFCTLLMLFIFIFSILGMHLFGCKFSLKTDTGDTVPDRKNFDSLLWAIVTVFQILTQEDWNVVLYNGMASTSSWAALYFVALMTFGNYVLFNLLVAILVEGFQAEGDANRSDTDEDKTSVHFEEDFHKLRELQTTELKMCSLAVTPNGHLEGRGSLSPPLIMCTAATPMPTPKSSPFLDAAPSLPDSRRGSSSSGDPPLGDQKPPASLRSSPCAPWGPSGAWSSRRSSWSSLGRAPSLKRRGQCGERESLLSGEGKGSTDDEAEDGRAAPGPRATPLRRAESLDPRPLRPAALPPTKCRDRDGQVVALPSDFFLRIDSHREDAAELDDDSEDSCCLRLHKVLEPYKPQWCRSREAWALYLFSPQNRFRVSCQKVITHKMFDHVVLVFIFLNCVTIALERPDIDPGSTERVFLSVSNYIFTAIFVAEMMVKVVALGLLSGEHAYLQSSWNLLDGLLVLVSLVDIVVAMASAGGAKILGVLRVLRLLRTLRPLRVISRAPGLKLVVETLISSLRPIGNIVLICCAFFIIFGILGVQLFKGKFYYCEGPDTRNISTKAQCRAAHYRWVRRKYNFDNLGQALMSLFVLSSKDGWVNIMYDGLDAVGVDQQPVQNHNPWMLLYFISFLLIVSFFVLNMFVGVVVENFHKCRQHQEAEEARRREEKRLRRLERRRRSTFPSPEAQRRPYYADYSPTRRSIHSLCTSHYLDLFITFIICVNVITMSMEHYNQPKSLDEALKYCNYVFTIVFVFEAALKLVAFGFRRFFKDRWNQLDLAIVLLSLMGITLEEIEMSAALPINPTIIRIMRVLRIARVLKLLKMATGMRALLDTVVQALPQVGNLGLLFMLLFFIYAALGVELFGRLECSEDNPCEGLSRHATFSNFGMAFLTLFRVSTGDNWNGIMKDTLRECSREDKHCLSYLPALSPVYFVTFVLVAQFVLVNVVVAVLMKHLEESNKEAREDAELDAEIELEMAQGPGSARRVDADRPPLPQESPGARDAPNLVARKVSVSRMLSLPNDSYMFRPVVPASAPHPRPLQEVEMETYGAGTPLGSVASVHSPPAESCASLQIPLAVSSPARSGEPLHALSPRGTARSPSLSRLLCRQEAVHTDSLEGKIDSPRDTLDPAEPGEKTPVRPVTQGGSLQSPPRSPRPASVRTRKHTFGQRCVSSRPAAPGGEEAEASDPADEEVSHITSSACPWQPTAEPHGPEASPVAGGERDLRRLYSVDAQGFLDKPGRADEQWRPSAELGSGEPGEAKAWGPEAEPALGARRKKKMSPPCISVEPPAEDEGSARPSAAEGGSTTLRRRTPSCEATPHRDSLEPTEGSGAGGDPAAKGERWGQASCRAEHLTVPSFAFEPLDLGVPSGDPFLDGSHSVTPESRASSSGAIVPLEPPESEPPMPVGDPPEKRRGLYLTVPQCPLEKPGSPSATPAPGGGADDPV
Paired box protein Pax-8, sequence (Q06710 whole entry): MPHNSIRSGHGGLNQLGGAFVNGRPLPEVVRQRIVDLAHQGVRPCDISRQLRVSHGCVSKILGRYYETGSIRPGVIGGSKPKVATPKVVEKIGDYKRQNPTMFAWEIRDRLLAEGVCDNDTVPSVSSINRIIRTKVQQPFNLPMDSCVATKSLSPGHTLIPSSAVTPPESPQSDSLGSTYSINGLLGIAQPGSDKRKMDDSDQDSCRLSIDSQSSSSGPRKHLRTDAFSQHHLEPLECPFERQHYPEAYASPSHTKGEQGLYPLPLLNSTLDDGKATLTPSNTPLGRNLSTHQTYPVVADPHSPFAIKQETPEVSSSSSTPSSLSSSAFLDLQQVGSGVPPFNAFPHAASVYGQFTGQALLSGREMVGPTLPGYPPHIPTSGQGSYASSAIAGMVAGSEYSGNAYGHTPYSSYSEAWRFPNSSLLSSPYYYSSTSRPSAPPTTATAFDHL
Cytochrome P450 2D6, sequence (P10635 whole entry): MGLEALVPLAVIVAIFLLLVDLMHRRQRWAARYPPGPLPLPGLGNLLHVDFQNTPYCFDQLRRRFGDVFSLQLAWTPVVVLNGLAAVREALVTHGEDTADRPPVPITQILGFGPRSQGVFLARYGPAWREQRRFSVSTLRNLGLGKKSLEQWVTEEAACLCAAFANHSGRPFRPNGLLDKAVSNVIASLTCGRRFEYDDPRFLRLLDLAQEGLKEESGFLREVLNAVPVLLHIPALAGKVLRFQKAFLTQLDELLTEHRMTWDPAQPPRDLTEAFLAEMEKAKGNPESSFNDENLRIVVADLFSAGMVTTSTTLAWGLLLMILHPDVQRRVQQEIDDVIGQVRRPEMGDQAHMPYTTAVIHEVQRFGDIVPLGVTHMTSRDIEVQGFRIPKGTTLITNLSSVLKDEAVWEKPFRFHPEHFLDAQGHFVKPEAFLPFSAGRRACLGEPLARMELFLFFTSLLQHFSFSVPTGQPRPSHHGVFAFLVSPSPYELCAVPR

## Clc1ccc(-n2ncc3c(N4CCCC4)ncnc32)cc1
[1]
  AC50: 2.04 µM (active)
[2]
  AC50: 1.32 µM (active)
[3]
  AC50: 2.7 µM (active)

## Cc1nn(-c2nc3ccccc3[nH]2)c(N)c1-c1ccc(Cl)cc1
[4]
  EC50: > 150 µM (not active)
[5]
  CC50: 31.1 µM (active)
[6]
  EC50: 2.42 µM (active)
[7]
  AC50: 12.6 µM (inconclusive)
[8]
  IC50: 1.23 µM (active)
[9]
  EC50: 8.49 µM (active)
[10]
  CC50: 17.2 µM (active)
[11]
  CC50: 16.2 µM (active)
[12]
  AC50: 25.1 µM (inconclusive)
[13]
  CC50: 25.8 µM (active)

## COc1ccc(S(=O)(=O)N(Cc2ccccc2)Cc2nc(-c3ccccc3)no2)cc1
[14]
  EC50: 6.27 µM (active)

## O=C(NCCSc1c[nH]c2ccccc12)c1ccc(Br)o1
[15]
  EC50: > 350 µM (not active)
[16]
  EC50: > 350 µM (not active)

## O=C1CN(c2ccccc2)C(=O)N1
[15]
  EC50: > 350 µM (not active)
[16]
  EC50: > 350 µM (not active)

## C/C=C/OC(=O)NC(c1cccc(C)c1)[C@@]1(C(=O)OCC)CCCC1=O (some centres not stated)
[17]
  AC50: 1.26 µM (inconclusive)

## COc1ccc(CCNC(=O)c2cc(-c3cccs3)on2)cc1OC
[15]
  EC50: > 350 µM (not active)
[16]
  EC50: > 350 µM (not active)

## Cc1ccc(-n2nnc(-c3nccn3C)n2)cc1
[1]
  AC50: 5.3 µM (active)
[18]
  AC50: > 52 µM (inactive)
[19]
  AC50: > 52 µM (inactive)
[3]
  AC50: 6.81 µM (active)

## CCCn1c(-c2ccc(F)cc2)nc2c(NCCN3CCCCC3)nc(C)nc21
[17]
  AC50: 15.8 µM (inconclusive)

## O=C(NC(=S)NCCc1ccccc1)c1ccccc1
[11]
  CC50: > 20 µM (active)

## CC(C)(C)c1ccc(C(=O)NCCCN2CCN(CCCNC(=O)c3ccc(C(C)(C)C)cc3)CC2)cc1
[20]
  AC50: 1.62 µM (active)
[21]
  AC50: 15.2 µM (active)
[22]
  AC50: 6.71 µM (active)
[23]
  EC50: 5.18 µM (active)
[24]
  IC50: > 20 µM (inactive)
[25]
  EC50: 27.9 µM (active)
[26]
  AC50: 4.84 µM (active)

## COCCCn1c(N)c(C(=O)Nc2sc3c(c2C(=O)OC)CCCC3)c2nc3ccccc3nc21
[27]
  IC50: > 79 µM (inactive)
[23]
  EC50: 33.9 µM (active)
[28]
  AC50: 10 µM (inconclusive)
[25]
  EC50: 27.8 µM (active)

## O=C(NCc1ccc(F)cc1)C1CCN(S(=O)(=O)N2CCOCC2)CC1
[15]
  EC50: > 350 µM (not active)
[16]
  EC50: > 350 µM (not active)

## O=C(NC(=S)Nc1ccccn1)c1cccc([N+](=O)[O-])c1
[15]
  EC50: > 350 µM (not active)
[16]
  EC50: > 350 µM (not active)

## O=C(CCc1ccccc1)N1CCN(c2ccc(Cl)cc2)CC1
[14]
  EC50: 4.01 µM (active)

## Nc1cc(=O)[nH]c(=O)n1Cc1ccccc1
[17]
  AC50: 25.1 µM (inconclusive)

## Cn1c(=O)c(C(=O)Nc2ccccn2)c(O)c2ccccc21
[8]
  IC50: 11.1 µM (active)
[10]
  CC50: 11.3 µM (active)
[11]
  CC50: > 20 µM (active)
[13]
  CC50: 19 µM (active)

## CCn1ncc(C2=NOC(C(=O)Nc3ccc4c(c3)OCO4)C2)c1C (configuration not stated)
[15]
  EC50: > 350 µM (not active)
[16]
  EC50: > 350 µM (not active)

## Cc1nn(Cc2ccccc2)c(Cl)c1C(=O)OCc1nnc(-c2ccccc2)o1
[14]
  EC50: 30.4 µM (active)

## CCCCCn1c(=O)c(C(=O)Nc2nc(CC(=O)OCC)cs2)c(O)c2ccccc21
[8]
  IC50: 2.79 µM (active)
[10]
  CC50: 11.8 µM (active)
[11]
  CC50: > 20 µM (active)
[13]
  CC50: 11.1 µM (active)

## O=[N+]([O-])c1ccc2[nH]cnc2c1
[17]
  AC50: 25.1 µM (inconclusive)

## COc1ccc(S(=O)(=O)Nc2ccc3c(c2)C(=O)N([C@H](C)CO)C[C@@H](C)[C@H](CN(C)S(=O)(=O)c2ccc(F)cc2)OCCCC[C@H](C)O3)cc1
[29]
  AC50: > 70 µM (inactive)
[30]
  AC50: 4.65 µM (active)

## C[C@@H]1CN([C@@H](C)CO)C(=O)c2cc(NS(=O)(=O)c3cccs3)ccc2O[C@@H](C)CCCCO[C@H]1CN(C)Cc1ccc(C(F)(F)F)cc1
[30]
  AC50: 25.2 µM (active)
[31]
  AC50: 44 µM (active)

## O=c1c(O)c(-c2ccccc2)oc2cccc(O)c12
[17]
  AC50: 12.6 µM (inconclusive)

## Nc1ccn([C@@H]2O[C@H](CO)[C@@H](OP(=O)(O)O)[C@H]2O)c(=O)n1
[17]
  AC50: 7.94 µM (inconclusive)

## CCc1nc(N2[C@H](C#N)[C@H](c3ccccc3-c3ccccc3F)[C@H]2CO)sc1C
[32]
  AC50: 7.33 µM (active)

## O=C(Cc1cccnc1)N1CC[C@H]2[C@H](CO)Nc3ccc(C#Cc4cccc(F)c4)cc3[C@H]21
[32]
  AC50: 6.12 µM (active)

## COc1ccccc1-c1ccc2c(c1)[C@H]1[C@H](CCN1C(=O)C1CCCC1)[C@@H](CO)N2
[32]
  AC50: 4.88 µM (active)

## CC(C)(C)[S@@+]([O-])N1Cc2cc(C(=O)NCCN3CCCCC3)nc(-c3cccc(-c4cccc(C#N)c4)c3)c2[C@H]1CCO
[32]
  AC50: 7.56 µM (active)

## COc1ccc(-c2c(O)c3c(OC)c4c(cc3oc2=O)OC(C)(C)CC4)cc1 [DIHYDROROBUSTIC ACID]
[17]
  AC50: 25.1 µM (inconclusive)
